How the values were obtained:
[1] = system: animal model of atopic dermatitis; assay: DNCB-induced animal model of atopic dermatitis, topical application; assay type: in vivo, BALB/c mice; conditions: 0.1% applied to ear
EGR-1 = EGR-1 (Homo sapiens, UniProt P18146); assay: EGR-1 DNA binding activity assay (EDBA); parameters: made in house; conditions: EGR-1 DNA binding inhibitory activity; EGR-1 overexpressing cell lysate; absorbance at 450 nm; compound concentration not given
Method: In this experiment, the inhibitory effect of the compounds of the present invention on EGR-1 binding activity was evaluated using an EGR-1 DNA binding activity assay (EDBA).
Single-stranded sense and antisense oligonucleotides of the following EGR-1 binding sequence (EBS) were prepared by outsourcing to Bioneer Co., Ltd. (Daejeon, Korea). In this case, the 5'-end of the sense oligonucleotide was labeled with biotin. The sense and antisense oligonucleotides were heated at 95 °C for 5 minutes and then left overnight at room temperature to hybridize the sense and antisense oligonucleotides. Hereinafter, the hybridized sense and antisense oligonucleotides are referred to as biotin-EBS. • Sense sequence: biotin-5'-[…]-3' • Antisense sequence: 5'-[…]-3'
Avidin protein was coated on a 96-well plate (purchased from Thermo Fisher Scientific), and biotin-EBS was added to the plate at a concentration of 0.5 pmol/50 µL/well, followed by reaction at 37 °C for 1 hour to allow biotin-EBS oligonucleotide to be attached to the plate. After washing three times with phosphate buffer saline containing 0.05% Tween 20 (PBS/Tween 20) to remove unattached biotin-EBS oligonucleotides, 200 µL of PBS/Tween 20 solution containing 2% bovine serum albumin (BSA) was added to each well, followed by reaction at 37 °C for 1 hour to block the surface of the plate where no oligonucleotide was attached.
The solution containing the sample compound and the EGR-1 protein was added to the biotin-EBS oligonucleotide coated plate prepared in step (2).
The compound sample (1 µL) was reacted with the EGR-1 overexpressing cell lysate containing 10 mM Tris, pH 7.5, 50 mM KCl, 2% BSA and 8% glycerol at room temperature for 30 minutes, and then added to a reaction well coated with biotin-EBS and further reacted at room temperature for one hour. After washing three times with PBS/Tween 20 solution, an EGR-1 antibody was added to the PBS solution supplemented with 2% BSA and 5 mM NaCl in an amount of 50 µL per each well. The mixture was incubated at room temperature for one hour, washed three times with PBS/Tween 20 solution, and then treated with horseradish peroxidase-conjugated secondary antibody (Goat anti-rabbit IgG antibody, Cell Signaling Technology company, Danvers, Mass., USA) diluted by 1:1000 at room temperature for one hour. After washing five times with PBS/Tween 20 solution, a substrate tetramethylbenzidine solution was added to each well in an amount of 50 µL. After reacting for 5 minutes, the reaction was stopped by adding 100 µL of 2 N sulfuric acid solution. The DNA binding inhibitory activity of EGR-1 was measured by absorbance at 450 nm according to Equation 1 below. EGR-1 DNA binding inhibitory activity (%) = 100−{(As/Ap)×100} [formula]
As: absorbance of a sample prepared by reacting an EGR-1-overexpressing cell lysate with the compound.
Ap: absorbance of the sample treated only with EGR-1-overexpressing cell lysate.

EGR-1, sequence (P18146 whole entry): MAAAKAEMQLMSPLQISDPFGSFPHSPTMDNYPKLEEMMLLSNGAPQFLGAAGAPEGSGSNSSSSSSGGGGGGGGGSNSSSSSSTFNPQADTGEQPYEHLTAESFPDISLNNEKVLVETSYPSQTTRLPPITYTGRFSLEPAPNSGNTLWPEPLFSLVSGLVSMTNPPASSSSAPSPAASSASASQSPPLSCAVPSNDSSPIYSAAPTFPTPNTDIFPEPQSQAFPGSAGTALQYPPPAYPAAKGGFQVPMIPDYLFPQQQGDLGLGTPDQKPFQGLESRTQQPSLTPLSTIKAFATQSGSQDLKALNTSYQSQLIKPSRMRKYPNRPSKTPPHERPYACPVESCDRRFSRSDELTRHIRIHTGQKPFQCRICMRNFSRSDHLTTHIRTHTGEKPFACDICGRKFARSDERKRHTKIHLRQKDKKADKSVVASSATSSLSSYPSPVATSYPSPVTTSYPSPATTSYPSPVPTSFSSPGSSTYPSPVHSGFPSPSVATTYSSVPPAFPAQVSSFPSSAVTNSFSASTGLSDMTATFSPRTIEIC

C[C@@H]1CCN(C(=O)CC#N)C[C@@H]1N(C)c1ncnc2[nH]ccc12 [tofacitinib, Tofacitinib, reference compound]
epidermal thickness ([1]; day 22, H&E staining, normal 24.47±2.353, DNCB only 37.27±4.393): 27.09±1.719 µm | dermal thickness ([1]; day 22, H&E staining, normal 143.2±19.61, DNCB only 197.5±17.83): 154.5±11.32 µm | expression of filaggrin ([1]; immunofluorescence of skin tissue, FIG. 17B): recovered to a level similar to normal tissue | expression of TSLP ([1]; immunofluorescence of skin tissue, compared to positive control group, FIG. 17A): significantly decreased | expression of MPO (neutrophil marker) ([1]; immunohistochemistry, FIG. 16C): decreased similar to normal tissue | expression of F4/80 (macrophage marker) ([1]; immunohistochemistry, FIG. 16D): decreased similar to normal tissue | mast cell infiltration ([1]; toluidine blue staining, compared to the positive control group, FIG. 16A): significantly reduced | number of mast cells infiltrated ([1]; toluidine blue staining, normal 11±3, DNCB 38±6): 14±5 per 2.5 cm^2

O=C1Nc2ccc(Br)cc2/C1=N/NC(=S)Nc1ccc([N+](=O)[O-])cc1 [Compound 38, (Z)-2-(5-bromo-2-oxoindolin-3-ylidene)-N-(4-nitrophenyl)hydrazinethioamide]
Inhibition Rate (%) (EGR-1): 51.33%

Cc1ccc2c(c1)/C(=N/NC(=S)Nc1cccc(C(F)(F)F)c1)C(=O)N2 [Compound 32, (Z)-2-(5-methyl-2-oxoindolin-3-ylidene)-N-(3-(trifluoromethyl)phenyl)hydrazinethioamide]
Inhibition Rate (%) (EGR-1): 40.93%

COc1ccc(NC(=S)N/N=C2\C(=O)Nc3ccc(Br)cc32)cc1 [Compound 55, (Z)-2-(5-bromo-2-oxoindolin-3-ylidene)-N-(4-methoxyphenyl)hydrazinethioamide]
Inhibition Rate (%) (EGR-1): 11.00%

O=C1Nc2cc(Br)ccc2/C1=N/NC(=S)Nc1cccc([N+](=O)[O-])c1 [Compound 36, (Z)-2-(6-bromo-2-oxoindolin-3-ylidene)-N-(3-nitrophenyl)hydrazinethioamide]
Inhibition Rate (%) (EGR-1): 46.33%

N#Cc1ccc(NC(=S)NN)cc1 [Compound 4, N-(4-cyanophenyl)hydrazinethioamide]
Inhibition Rate (%) (EGR-1): 16.27%

COc1ccc(NC(=S)NN)cc1OC [Compound 56, N-(3,4-dimethoxyphenyl)hydrazinethioamide]
Inhibition Rate (%) (EGR-1): 12.67%

COc1ccccc1NC(=S)N/N=C1\C(=O)Nc2ccccc21 [Compound 39, (Z)-N-(2-methoxyphenyl)-2-(2-oxoindolin-3-ylidene)hydrazinethioamide]
Inhibition Rate (%) (EGR-1): 47.33%

COc1cccc(NC(=S)N/N=C2\C(=O)Nc3ccccc32)c1 [Compound 50, (Z)-N-(3-methoxyphenyl)-2-(2-oxoindolin-3-ylidene)hydrazinethioamide]
Inhibition Rate (%) (EGR-1): 27.33%

O=C1Nc2cccc(Cl)c2/C1=N/NC(=S)Nc1ccccc1 [Compound 59, (Z)-2-(4-chloro-2-oxoindolin-3-ylidene)-N-phenylhydrazinethioamide]
Inhibition Rate (%) (EGR-1): 40.17%

O=C1Nc2c(F)cccc2/C1=N/NC(=S)Nc1ccc(F)cc1 [Compound 18, (Z)-2-(7-fluoro-2-oxoindolin-3-ylidene)-N-(4-fluorophenyl)hydrazinethioamide]
Inhibition Rate (%) (EGR-1): 33.80%

O=C1Nc2c(F)cccc2/C1=N/NC(=S)Nc1ccc([N+](=O)[O-])cc1 [Compound 65, (Z)-2-(7-fluoro-2-oxoindolin-3-ylidene)-N-(4-nitrophenyl)hydrazinethioamide]
Inhibition Rate (%) (EGR-1): 43.03%

COc1ccc2c(c1)NC(=O)/C2=N\NC(=S)Nc1ccccc1 [Compound 22, (Z)-2-(6-methoxy-2-oxoindolin-3-ylidene)-N-phenylhydrazinethioamide]
Inhibition Rate (%) (EGR-1): 51.33%

O=C1Nc2ccc(OC(F)(F)F)cc2/C1=N/NC(=S)Nc1cccc([N+](=O)[O-])c1 [Compound 77, (Z)-N-(3-nitrophenyl)-2-(2-oxo-5-(trifluoromethoxy)indolin-3-ylidene)hydrazinethioamide]
Inhibition Rate (%) (EGR-1): 37.37%

O=C1Nc2c(Br)cccc2/C1=N/NC(=S)Nc1ccccc1 [Compound 46, (Z)-2-(7-bromo-2-oxoindolin-3-ylidene)-N-phenylhydrazinethioamide]
Inhibition Rate (%) (EGR-1): 11.33%

CC(C)CNC(=S)NN [Compound 8, N-isobutylhydrazinethioamide]
Inhibition Rate (%) (EGR-1): 38.73%

COc1ccc(NC(=S)N/N=C2\C(=O)Nc3cccc(Br)c32)cc1 [Compound 54, (Z)-2-(4-bromo-2-oxoindolin-3-ylidene)-N-(4-methoxyphenyl)hydrazinethioamide]
Inhibition Rate (%) (EGR-1): 12.67%

COc1ccc2c(c1)NC(=O)/C2=N\NC(=S)Nc1cccc(C(F)(F)F)c1 [Compound 66, (Z)-2-(6-methoxy-2-oxoindolin-3-ylidene)-N-(3-(trifluoromethyl)phenyl)hydrazinethioamide]
Inhibition Rate (%) (EGR-1): 11.70%

Cc1cccc(NC(=S)NN)c1 [Compound 11, N-(m-tolyl)hydrazinethioamide]
Inhibition Rate (%) (EGR-1): 18.67%

O=C1Nc2cc(Br)ccc2/C1=N/NC(=S)Nc1ccc([N+](=O)[O-])cc1 [Compound 58, (Z)-2-(6-bromo-2-oxoindolin-3-ylidene)-N-(4-nitrophenyl)hydrazinethioamide]
Inhibition Rate (%) (EGR-1): 46.97%

CC(C)NC(=S)NN [Compound 7, N-isopropylhydrazinethioamide]
Inhibition Rate (%) (EGR-1): 23.33%

Source: patent EP4799619A1, “COMPOUND TARGETING EGR-1 AND USE THEREOF FOR TREATMENT OF ATOPIC DERMATITIS” (AgeraMedi, Inc., priority 2023, dated 2025)
